Article PMC12507022, “Widespread distribution of BpfA-mediated bisphenol F degradation among members of the Pseudomonadota and Actinomycetota” (The ISME Journal, 2025)

How the values were obtained:
FBO = system: T1, FBO; assay: HPLC, Michaelis-Menten fit; format: biochemical, Sphingobium sp. W15; conditions: 20 mM Tris-HCl pH 8.0, 30 °C, 0.2 mM FAD added
T1 construct: synthetic gene, expressed and purified like BpfA (E. coli, Ni-NTA)

BpfA = system: T2, BpfA; assay: HPLC, Michaelis-Menten fit; format: biochemical, Microbacterium sp. F2; conditions: 20 mM Tris-HCl pH 8.0, 30 °C, O2 as electron acceptor
T2 construct: recombinant from pET29a(+) (NdeI/XhoI) in E. coli BL21(DE3), Ni-NTA purified; contains flavin

| SMILES | Km (FBO) | Km (BpfA) |
| --- | --- | --- |
| Oc1ccc(Cc2ccc(O)cc2)cc1 [BPF] | 167 ± 12.8 µM | 12.4 ± 1.9 µM |
| CCCc1ccc(O)c(OC)c1 [4PG] | 170 ± 5.9 µM | 25.4 ± 2.9 µM |
| COCc1ccc(O)cc1 [4MOP] |  | 297 ± 5 µM |
| COc1cc(CO)ccc1O [VA] | 183 ± 9.3 µM | 266 ± 10.3 µM |
